According to ChEMBL document CHEMBL6153125, “Harnessing the Magic Methyl Effect: Discovery of CLPP-2068 as a Novel HsClpP Activator for the Treatment of Diffuse Large B-Cell Lymphoma” (J Med Chem, 2025):

Tests used:
[1] = biological target: ATP-dependent Clp protease proteolytic subunit, mitochondrial (Homo sapiens, UniProt Q16740); experiment: Activation of human ClpP extracted from Escherichia coli using Ac-WLA-AMC as substrate assessed as fluorescence signal measured after 10 mins incubation
SU-DHL-6 = experiment: Antiproliferative activity against human SU-DHL-6 cells assessed as cell viability measured after 72 hrs incubation by CellTiter-based growth inhibition assay; settings: SU-DHL-6, 72 h
OCI-Ly3 = experiment: Antiproliferative activity against human OCI-Ly3 cells assessed as cell viability measured after 72 hrs incubation by CellTiter-based growth inhibition assay; settings: OCI-Ly3, 72 h
SUD4 = experiment: Antiproliferative activity against human SU-DHL-4 cells assessed as cell viability measured after 72 hrs incubation by CellTiter-based growth inhibition assay; settings: SU-DHL-4, 72 h
SU-DHL-2 = experiment: Antiproliferative activity against human SU-DHL-2 cells assessed as cell viability measured after 72 hrs incubation by CellTiter-based growth inhibition assay; settings: SU-DHL-2, 72 h
Toledo = experiment: Antiproliferative activity against human Toledo cells assessed as cell viability measured after 72 hrs incubation by CellTiter-based growth inhibition assay
[2] = Half life in ICR mouse at 10 mg/kg, po measured upto 24 hrs by LC-MS/MS analysis; settings: in vivo
[3] = MRT in ICR mouse at 10 mg/kg, po measured upto 24 hrs by LC-MS/MS analysis; settings: in vivo
[4] = Half life in ICR mouse at 2 mg/kg, iv measured upto 24 hrs by LC-MS/MS analysis; settings: in vivo
[5] = AUCt in ICR mouse at 2 mg/kg, iv measured upto 24 hrs by LC-MS/MS analysis; settings: in vivo
[6] = Clearance in ICR mouse at 2 mg/kg, iv measured upto 24 hrs by LC-MS/MS analysis; settings: in vivo
[7] = MRT in ICR mouse at 2 mg/kg, iv measured upto 24 hrs by LC-MS/MS analysis; settings: in vivo
[8] = Volume of distribution at steady state in ICR mouse at 2 mg/kg measured upto 24 hrs by LC-MS/MS analysis; settings: in vivo, iv
[9] = Metabolic stability in rat liver microsomes assessed as half life
[10] = Metabolic stability in human liver microsomes assessed as half life
[11] = Metabolic stability in rat liver microsomes assessed as intrinsic clearance
[12] = Metabolic stability in human liver microsomes assessed as intrinsic clearance
[13] = Metabolic stability in rat liver microsomes assessed as apparent intrinsic clearance
[14] = Metabolic stability in human liver microsomes assessed as apparent intrinsic clearance
[15] = Metabolic stability in rat liver microsomes assessed as hepatic clearance
[16] = Metabolic stability in human liver microsomes assessed as hepatic clearance
[17] = Metabolic stability in rat liver microsomes assessed as hepatic extraction
[18] = Metabolic stability in human liver microsomes assessed as hepatic extraction
[19] = biological target: Voltage-gated inwardly rectifying potassium channel KCNH2 (Homo sapiens, UniProt Q12809)
in vivo [20] = settings: ICR, mouse, po, 10 mg/kg
Description: Tmax in ICR mouse at 10 mg/kg, po measured upto 24 hrs by LC-MS/MS analysis

in vivo [21] = settings: ICR, mouse, po, 10 mg/kg; remark: listed apart in the source
Description: Cmax in ICR mouse at 10 mg/kg, po measured upto 24 hrs by LC-MS/MS analysis

in vivo [22] = settings: ICR, mouse, po, 10 mg/kg; remark: listed apart in the source
Description: AUC (0 to t) in ICR mouse at 10 mg/kg, po measured upto 24 hrs by LC-MS/MS analysis

in vivo [23] = settings: ICR, mouse, po, 10 mg/kg; remark: listed apart in the source
Description: Oral bioavailability in ICR mouse at 10 mg/kg measured upto 24 hrs by LC-MS/MS analysis

Sequence of Voltage-gated inwardly rectifying potassium channel KCNH2 (Q12809 whole entry): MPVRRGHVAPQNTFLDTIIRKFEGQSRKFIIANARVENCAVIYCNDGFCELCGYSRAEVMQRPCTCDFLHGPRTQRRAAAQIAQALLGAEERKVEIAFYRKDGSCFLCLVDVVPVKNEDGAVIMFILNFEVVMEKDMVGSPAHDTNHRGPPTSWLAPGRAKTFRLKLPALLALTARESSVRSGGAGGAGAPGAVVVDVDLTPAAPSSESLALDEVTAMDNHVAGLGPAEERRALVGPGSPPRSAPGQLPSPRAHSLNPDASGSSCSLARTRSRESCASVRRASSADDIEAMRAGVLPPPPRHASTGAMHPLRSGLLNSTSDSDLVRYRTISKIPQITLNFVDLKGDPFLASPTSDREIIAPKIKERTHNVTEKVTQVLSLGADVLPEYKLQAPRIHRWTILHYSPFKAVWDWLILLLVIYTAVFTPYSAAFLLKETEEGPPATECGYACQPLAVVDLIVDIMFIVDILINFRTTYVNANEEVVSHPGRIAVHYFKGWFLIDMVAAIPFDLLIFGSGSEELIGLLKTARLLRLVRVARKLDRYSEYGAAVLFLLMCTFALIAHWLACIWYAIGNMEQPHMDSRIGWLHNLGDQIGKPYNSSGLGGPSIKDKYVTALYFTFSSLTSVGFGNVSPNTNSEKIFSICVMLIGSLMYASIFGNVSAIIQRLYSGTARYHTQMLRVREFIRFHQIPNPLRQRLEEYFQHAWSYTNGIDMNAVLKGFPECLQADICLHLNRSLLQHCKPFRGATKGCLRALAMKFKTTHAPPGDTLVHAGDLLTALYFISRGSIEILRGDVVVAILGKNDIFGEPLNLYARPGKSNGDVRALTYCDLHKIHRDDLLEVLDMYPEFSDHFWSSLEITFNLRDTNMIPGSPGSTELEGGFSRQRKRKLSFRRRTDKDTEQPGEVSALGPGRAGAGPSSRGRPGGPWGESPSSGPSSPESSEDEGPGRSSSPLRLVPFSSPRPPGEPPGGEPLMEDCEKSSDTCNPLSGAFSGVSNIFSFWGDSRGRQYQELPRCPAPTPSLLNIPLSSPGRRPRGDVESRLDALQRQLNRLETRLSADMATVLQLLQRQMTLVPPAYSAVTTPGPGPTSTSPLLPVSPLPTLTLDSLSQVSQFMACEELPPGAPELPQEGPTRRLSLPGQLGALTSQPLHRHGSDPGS
Sequence of ATP-dependent Clp protease proteolytic subunit, mitochondrial (Q16740 whole entry): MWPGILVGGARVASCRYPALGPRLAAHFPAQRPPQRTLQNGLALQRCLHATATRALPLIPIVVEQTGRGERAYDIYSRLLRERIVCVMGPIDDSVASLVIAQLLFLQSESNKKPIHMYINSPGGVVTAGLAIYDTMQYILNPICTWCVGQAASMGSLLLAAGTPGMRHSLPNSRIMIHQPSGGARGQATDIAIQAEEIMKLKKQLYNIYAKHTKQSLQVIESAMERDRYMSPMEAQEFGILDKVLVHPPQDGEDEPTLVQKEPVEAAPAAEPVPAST

O=C1C2=C(CCN(Cc3ccccc3)C2)N2CCN=C2N1Cc1ccc(C(F)(F)F)cc1
EC50 [1]: 156 nM
IC50 (SU-DHL-6): 91.8 nM
IC50 (OCI-Ly3): 148 nM
IC50 (SUD4): 250 nM
IC50 (SU-DHL-2): 222 nM
IC50 (Toledo): > 250 nM
half-life at 24 h [2]: 225 min
MRT at 24 h [3]: 4.65 h
half-life at 24 h [4]: 121 min
AUC(0-t) at 24 h [5]: 1530 ng·h/mL
clearance at 24 h [6]: 21.8 mL/min/kg
MRT at 24 h [7]: 1.72 h
Vd at 24 h [8]: 2.25 L/kg
half-life [9]: 426 min
half-life [10]: 612 min
CLint scaled [11]: 487 mL/min/kg
CLint scaled [12]: 338 mL/min/kg
CLint scaled [13]: 876 mL/min/kg
CLint scaled [14]: 396 mL/min/kg
CLhep predicted [15]: 51.9 mL/min/kg
CLhep predicted [16]: 19.7 mL/min/kg
hepatic extraction ratio [17]: 0.941
hepatic extraction ratio [18]: 0.95
IC50 [19]: > 40 µM
Tmax at 24 h (in vivo [20]): 25.2 min
Cmax at 24 h (in vivo [21]): 873 ng/mL
AUC(0-t) at 24 h (in vivo [22]): 3350 ng·h/mL
bioavailability at 24 h (in vivo [23]): 43.7%
